# Results as given in patent US7138361B2, “Herbicidal heterocycles” (E. I. du Pont de Nemours and Company, priority 2000, dated 2006).
# Tests used:
# Format in all cases: in vivo
# [1] = test system: Surinam grass (Brachiaria decumbens); test: Test B postemergence; details: 13 to 15 days
# Outline: (§1)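 Greenhouse test: chemicals are formulated in a surfactant-containing non-phytotoxic solvent and applied either preemergence to planted seeds or postemergence to plants 2 to 18 cm tall. Response is rated visually versus controls after 13 to 15 days, 0 meaning no effect and 100 complete control.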
# [2] = test system: barnyardgrass (Echinochloa crus-galli); test: Test B postemergence; details: 13 to 15 days
# Outline: as §1
# [3] = test system: blackgrass (Alopecurus myosuroides); test: Test B postemergence; details: 13 to 15 days
# Outline: as §1
# [4] = test system: cocklebur (Xanthium strumarium); test: Test B postemergence; details: 13 to 15 days
# Outline: as §1
# corn (Zea mays) [5] = test: Test B postemergence; details: 13 to 15 days
# Outline: as §1
# [6] = test system: crabgrass (Digitaria sanguinalis); test: Test B postemergence; details: 13 to 15 days
# Outline: as §1
# [7] = test system: giant foxtail (Setaria faberii); test: Test B postemergence; details: 13 to 15 days
# Outline: as §1
# [8] = test system: lambsquarters (Chenopodium album); test: Test B postemergence; details: 13 to 15 days
# Outline: as §1
# [9] = test system: morning glory (Ipomoea hederacea); test: Test B postemergence; details: 13 to 15 days
# Outline: as §1
# [10] = test system: pigweed (Amaranthus retroflexus); test: Test B postemergence; details: 13 to 15 days
# Outline: as §1
# [11] = test system: velvetleaf (Abutilon theophrasti); test: Test B postemergence; details: 13 to 15 days
# Outline: as §1
# [12] = test system: wheat (Triticum aestivum); test: Test B postemergence; details: 13 to 15 days
# Outline: as §1
# wild oat (Avena fatua) = test: Test B postemergence; details: 13 to 15 days
# Outline: as §1
# [13] = test system: Surinam grass (Brachiaria decumbens); test: Test B preemergence; details: scale 0 to 100, 0 no effect, 100 complete control
# Outline: as §1
# [14] = test system: barnyardgrass (Echinochloa crus-galli); test: Test B preemergence; details: scale 0 to 100, 0 no effect, 100 complete control
# Outline: as §1
# [15] = test system: cocklebur (Xanthium strumarium); test: Test B preemergence; details: scale 0 to 100, 0 no effect, 100 complete control
# Outline: as §1
# corn (Zea mays) [16] = test: Test B preemergence; details: scale 0 to 100, 0 no effect, 100 complete control
# Outline: as §1
# [17] = test system: crabgrass (Digitaria sanguinalis); test: Test B preemergence; details: scale 0 to 100, 0 no effect, 100 complete control
# Outline: as §1
# [18] = test system: giant foxtail (Setaria faberii); test: Test B preemergence; details: scale 0 to 100, 0 no effect, 100 complete control
# Outline: as §1
# [19] = test system: lambsquarters (Chenopodium album); test: Test B preemergence; details: scale 0 to 100, 0 no effect, 100 complete control
# Outline: as §1
# [20] = test system: morning glory (Ipomoea hederacea); test: Test B preemergence; details: scale 0 to 100, 0 no effect, 100 complete control
# Outline: as §1
# [21] = test system: pigweed (Amaranthus retroflexus); test: Test B preemergence; details: scale 0 to 100, 0 no effect, 100 complete control
# Outline: as §1
# rice (Oryza saliva) [22] = test: Test B preemergence; details: scale 0 to 100, 0 no effect, 100 complete control
# Outline: as §1
# [23] = test system: velvetleaf (Abutilon theophrasti); test: Test B preemergence; details: scale 0 to 100, 0 no effect, 100 complete control
# Outline: as §1
# [24] = test system: barnyardgrass (Echinochloa crus-galli); test: Test B flooded paddy test; details: Rate 1000 g/ha, scale of 0 to 100 where 0 is no effect and 100 is complete control, visually evaluated after 13 to 15 days
# Outline: (§2)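 Visual injury score on a 0–100 scale, where 100 means complete control, assigned against untreated controls 13 to 15 days after plants at the 2-leaf stage were treated under flooded paddy conditions.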
# [25] = test system: duck salad (Heteranthera limosa); test: Test B flooded paddy test; details: Rate 1000 g/ha, scale of 0 to 100 where 0 is no effect and 100 is complete control, visually evaluated after 13 to 15 days
# Outline: as §2
# rice (Oryza saliva) [26] = test: Test B flooded paddy test; details: Rate 1000 g/ha, scale of 0 to 100 where 0 is no effect and 100 is complete control, visually evaluated after 13 to 15 days
# Outline: as §2
# [27] = test system: smallflower flatsedge (Cyperus difformis); test: Test B flooded paddy test; details: Rate 1000 g/ha, scale of 0 to 100 where 0 is no effect and 100 is complete control, visually evaluated after 13 to 15 days
# Outline: as §2
# [28] = test system: barnyardgrass (Echinochloa crus-galli); test: Test C flooded paddy test
# Outline: (§3)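 Plants were grown to the 2-leaf stage under flooded paddy conditions and treated. They were then kept in a greenhouse for 12 to 14 days and visually rated against untreated controls on a 0–100 scale, where 0 is no effect and 100 is complete control.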
# [29] = test system: duck salad (Heteranthera limosa); test: Test C flooded paddy test
# Outline: as §3
# rice (Oryza saliva) [30] = test: Test C flooded paddy test
# Outline: as §3
# [31] = test system: smallflower flatsedge (Cyperus difformis); test: Test C flooded paddy test; details: for Flatsedge plant response rating: Flooded Paddy, scale 0 to 100, 0 no effect, 100 complete control; for Plant response rating, Flatsedge: flooded paddy test, scale 0 to 100 (0 no effect, 100 complete control)
# Outline: as §3
# [32] = Rate 125 g/ha, scale 0 (no effect) to 100 (complete control)
# [33] = Rate 500 g/ha, scale 0 to 100, 0 is no effect, 100 is complete control
# [34] = Flooded Paddy, Rate 500 g/ha, scale 0 to 100
# [35] = Flooded Paddy, Rate 250 g/ha, scale 0 to 100, 0 no effect, 100 complete control
# [36] = flooded paddy test, Rate 62 g/ha, scale 0 to 100 (0 no effect, 100 complete control)
# [37] = flooded paddy test, Rate 125 g/ha, scale 0 to 100 (0 no effect, 100 complete control)
compound,measurement,setting,value
Cc1ccn(C2SCN(c3cccc(C(F)(F)F)c3)C2=O)n1 (centres unmarked) [Compound 19],"Plant response rating, Surinam grass",[1]; [32],0
same,"Plant response rating, Surinam grass",[1]; [33],10
same,"Plant response rating, Barnyardgrass",[2]; [32],0
same,"Plant response rating, Barnyardgrass",[2]; [33],0
same,"Plant response rating, Blackgrass",[3]; [32],0
same,"Plant response rating, Blackgrass",[3]; [33],0
same,"Plant response rating, Cocklebur",[4]; [32],20
same,"Plant response rating, Cocklebur",[4]; [33],20
same,"Plant response rating, Corn",corn (Zea mays) [5]; [32],0
same,"Plant response rating, Corn",corn (Zea mays) [5]; [33],0
same,"Plant response rating, Crabgrass",[6]; [32],0
same,"Plant response rating, Crabgrass",[6]; [33],20
same,"Plant response rating, Foxtail, Giant",[7]; [32],0
same,"Plant response rating, Foxtail, Giant",[7]; [33],0
same,"Plant response rating, Lambsquarters",[8]; [32],10
same,"Plant response rating, Lambsquarters",[8]; [33],70
same,"Plant response rating, Morningglory",[9]; [32],20
same,"Plant response rating, Morningglory",[9]; [33],30
same,"Plant response rating, Pigweed",[10]; [32],0
same,"Plant response rating, Pigweed",[10]; [33],0
same,"Plant response rating, Velvetleaf",[11]; [32],10
same,"Plant response rating, Velvetleaf",[11]; [33],20
same,"Plant response rating, Wheat",[12]; [32],0
same,"Plant response rating, Wheat",[12]; [33],0
same,"Plant response rating, Wild Oat",wild oat (Avena fatua); [32],0
same,"Plant response rating, Wild Oat",wild oat (Avena fatua); [33],0
same,"Plant response rating, Surinam grass","[13]; Preemergence, Rate 500 g/ha",20
same,"Plant response rating, Surinam grass","[13]; preemergence, Rate 125 g/ha",0
same,"Plant response rating, Barnyardgrass","[14]; Preemergence, Rate 500 g/ha",0
same,"Plant response rating, Barnyardgrass","[14]; preemergence, Rate 125 g/ha",0
same,"Plant response rating, Cocklebur","[15]; Preemergence, Rate 500 g/ha",0
same,"Plant response rating, Cocklebur","[15]; preemergence, Rate 125 g/ha",0
same,"Plant response rating, Corn","corn (Zea mays) [16]; Preemergence, Rate 500 g/ha",0
same,"Plant response rating, Corn","corn (Zea mays) [16]; preemergence, Rate 125 g/ha",0
same,"Plant response rating, Crabgrass","[17]; Preemergence, Rate 500 g/ha",0
same,"Plant response rating, Crabgrass","[17]; preemergence, Rate 125 g/ha",0
same,"Plant response rating, Foxtail, Giant","[18]; Preemergence, Rate 500 g/ha",0
same,"Plant response rating, Foxtail, Giant","[18]; preemergence, Rate 125 g/ha",0
same,"Plant response rating, Lambsquarters","[19]; Preemergence, Rate 500 g/ha",60
same,"Plant response rating, Lambsquarters","[19]; preemergence, Rate 125 g/ha",0
same,"Plant response rating, Morningglory","[20]; Preemergence, Rate 500 g/ha",0
same,"Plant response rating, Morningglory","[20]; preemergence, Rate 125 g/ha",0
same,"Plant response rating, Pigweed","[21]; Preemergence, Rate 500 g/ha",0
same,"Plant response rating, Pigweed","[21]; preemergence, Rate 125 g/ha",0
same,"Plant response rating, Rice","rice (Oryza saliva) [22]; Preemergence, Rate 500 g/ha",0
same,"Plant response rating, Rice","rice (Oryza saliva) [22]; preemergence, Rate 125 g/ha",0
same,"Plant response rating, Velvetleaf","[23]; Preemergence, Rate 500 g/ha",0
same,"Plant response rating, Velvetleaf","[23]; preemergence, Rate 125 g/ha",0
same,"Plant response rating, Barnyardgrass",[24],60
same,"Plant response rating, Ducksalad",[25],80
same,"Plant response rating, Rice",rice (Oryza saliva) [26],0
same,"Plant response rating, Flatsedge",[27],90
same,"Plant response rating, Barnyardgrass",[28]; [34],0
same,Barnyardgrass plant response rating,[28]; [35],0
same,"Plant response rating, Barnyardgrass",[28]; [36],0
same,"Plant response rating, Barnyardgrass",[28]; [37],0
same,"Plant response rating, Ducksalad",[29]; [34],0
same,Ducksalad plant response rating,[29]; [35],0
same,"Plant response rating, Ducksalad",[29]; [36],0
same,"Plant response rating, Ducksalad",[29]; [37],0
same,"Plant response rating, Rice",rice (Oryza saliva) [30]; [34],0
same,Rice plant response rating,rice (Oryza saliva) [30]; [35],0
same,"Plant response rating, Rice",rice (Oryza saliva) [30]; [36],0
same,"Plant response rating, Rice",rice (Oryza saliva) [30]; [37],0
same,Flatsedge plant response rating,[31]; Rate 250 g/ha,0
same,Flatsedge plant response rating,[31]; Rate 500 g/ha,30
same,"Plant response rating, Flatsedge",[31]; Rate 62 g/ha,0
same,"Plant response rating, Flatsedge",[31]; Rate 125 g/ha,0
